3 compounds from ChEMBL document CHEMBL1268812, “Piperidine-based renin inhibitors: upper chain optimization” (Bioorg Med Chem Lett, 2010) can be followed below.

Structures are written as SMILES.

Holding throughout (settings): rat, po, 3 mg/kg
Data set [1] is described as follows: in vivo.
Description: Half life in transgenic rat harboring human angiotensinogen and human renin gene at 3 mg/kg, po
Data set [2] can be described thus: in vivo. This is another data set of the same source.
Data set [3] can be described thus: in vivo. This is another data set of the same source.
Description: Clearance in transgenic rat harboring human angiotensinogen and human renin gene at 3 mg/kg, po

As to `COCCc1ccc(Cl)c(CN(C(=O)[C@H]2CNCC[C@@H]2c2ccc(OCCOc3c(Cl)cc(C)cc3Cl)nc2)C2CC2)c1`, in the data set “in vivo [1]”, the half-life – broadly, the time needed for the level to fall by half in the phase considered – was 5.8 h. In addition, the bioavailability (in general, the share of a dose that reaches the circulation, judged against a reference dose that is usually intravenous) in the data set “in vivo [2]” amounted to 35%. For the same compound, the apparent clearance CL/F (as a rule, the apparent clearance, not corrected for the fraction that reaches the circulation) in “in vivo [3]” came out at 21 mL/min/kg.
As to `COCCc1ccc(Cl)c(CN(C(=O)[C@H]2CNCC[C@@H]2c2ccc(N3CC[C@@H](Oc4c(Cl)cc(C)cc4Cl)C3)nc2)C2CC2)c1`, the half-life in the data set “in vivo [1]” was 5.6 h. The compound also yielded a bioavailability in the data set “in vivo [2]” of 8%. The CL/F in “in vivo [3]” is 35 mL/min/kg.
With `COCCCc1ccc(Cl)c(CN(C(=O)[C@H]2CNCC[C@@H]2c2ccc(OCCOc3c(Cl)cc(C)cc3Cl)nc2)C2CC2)c1`, the half-life in the data set “in vivo [1]” was 3.6 h. The bioavailability in “in vivo [2]” was 28%. Also, the CL/F in “in vivo [3]” was 29 mL/min/kg.
